# Data: ChEMBL document CHEMBL3351521, “Benzene-1,3-dicarboxylic acid 2,5-dimethylpyrrole derivatives as multiple inhibitors of bacterial Mur ligases (MurC-MurF)” (Bioorg Med Chem, 2014)
# Assays:
# [1] = target: T1, UDP-N-acetylmuramoyl-tripeptide--D-alanyl-D-alanine ligase (Escherichia coli K-12) (UniProt P11880); assay: Inhibition of Escherichia coli MurF assessed as residual enzyme activity at 250 uM after 15 mins in presence of 0.005% Triton X-114 by Malachite green assay
# T1 sequence (whole entry): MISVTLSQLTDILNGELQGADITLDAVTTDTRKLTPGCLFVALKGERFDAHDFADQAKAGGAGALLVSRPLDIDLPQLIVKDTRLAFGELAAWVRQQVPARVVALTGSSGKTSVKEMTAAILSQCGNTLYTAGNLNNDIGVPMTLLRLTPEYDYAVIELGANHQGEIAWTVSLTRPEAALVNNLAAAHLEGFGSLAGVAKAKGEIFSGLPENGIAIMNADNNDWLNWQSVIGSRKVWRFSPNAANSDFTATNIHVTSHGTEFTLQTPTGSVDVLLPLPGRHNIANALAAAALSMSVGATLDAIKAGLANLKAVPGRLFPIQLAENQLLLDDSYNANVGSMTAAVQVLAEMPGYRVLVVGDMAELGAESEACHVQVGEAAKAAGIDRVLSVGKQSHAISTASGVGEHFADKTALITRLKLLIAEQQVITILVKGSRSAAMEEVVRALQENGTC
# [2] = target: UDP-N-acetylmuramate--L-alanine ligase (Escherichia coli K-12) (UniProt P17952); assay: Inhibition of Escherichia coli MurC assessed as residual enzyme activity at 250 uM after 15 mins in presence of 0.005% Triton X-114 by Malachite green assay
# [3] = target: T2, UDP-N-acetylmuramoylalanine--D-glutamate ligase (Escherichia coli K-12, UniProt P14900); assay: Inhibition of Escherichia coli MurD after 15 mins in presence of 0.005% Triton X-114 by Malachite green assay
# T2 sequence (P14900 whole entry): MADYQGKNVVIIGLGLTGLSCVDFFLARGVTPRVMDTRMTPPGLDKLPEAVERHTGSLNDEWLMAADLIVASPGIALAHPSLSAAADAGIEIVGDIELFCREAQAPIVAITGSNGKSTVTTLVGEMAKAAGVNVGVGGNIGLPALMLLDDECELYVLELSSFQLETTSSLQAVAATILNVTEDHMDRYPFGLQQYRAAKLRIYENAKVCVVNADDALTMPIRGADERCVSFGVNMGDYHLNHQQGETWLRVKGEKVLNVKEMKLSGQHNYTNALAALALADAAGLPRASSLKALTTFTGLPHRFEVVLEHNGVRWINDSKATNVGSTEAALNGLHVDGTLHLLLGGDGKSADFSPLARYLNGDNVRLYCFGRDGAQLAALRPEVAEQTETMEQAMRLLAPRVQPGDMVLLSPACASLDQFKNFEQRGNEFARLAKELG
# [4] = target: UDP-N-acetylmuramate--L-alanine ligase (Escherichia coli K-12, UniProt P17952); assay: Inhibition of Escherichia coli MurC after 15 mins in presence of 0.005% Triton X-114 by Malachite green assay
# [5] = target: T3, UDP-N-acetylmuramoyl-L-alanyl-D-glutamate--2,6-diaminopimelate ligase (Escherichia coli (strain K12), UniProt P22188); assay: Inhibition of Escherichia coli MurE after 15 mins in presence of 0.005% Triton X-114 by Malachite green assay
# T3 sequence (P22188 whole entry): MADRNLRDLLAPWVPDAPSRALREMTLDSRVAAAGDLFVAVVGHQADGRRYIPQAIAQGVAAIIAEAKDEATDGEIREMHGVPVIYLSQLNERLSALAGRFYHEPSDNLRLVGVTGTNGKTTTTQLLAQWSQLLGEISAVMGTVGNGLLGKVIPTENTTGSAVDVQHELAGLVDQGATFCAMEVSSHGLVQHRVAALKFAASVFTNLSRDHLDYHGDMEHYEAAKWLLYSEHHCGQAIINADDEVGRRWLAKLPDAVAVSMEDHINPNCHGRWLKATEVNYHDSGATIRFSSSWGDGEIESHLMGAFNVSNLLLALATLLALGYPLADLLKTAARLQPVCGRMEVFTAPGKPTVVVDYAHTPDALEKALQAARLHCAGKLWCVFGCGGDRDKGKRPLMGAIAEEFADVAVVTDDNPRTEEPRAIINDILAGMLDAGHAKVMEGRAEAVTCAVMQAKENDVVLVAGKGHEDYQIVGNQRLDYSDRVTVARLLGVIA
# [6] = target: T4, UDP-N-acetylmuramoyl-tripeptide--D-alanyl-D-alanine ligase (Escherichia coli K-12, UniProt P11880); assay: Inhibition of Escherichia coli MurF after 15 mins in presence of 0.005% Triton X-114 by Malachite green assay
# T4 sequence (P11880 whole entry): T1 sequence (whole entry)
# [7] = target: T5, UDP-N-acetylmuramoylalanine--D-glutamate ligase (Escherichia coli K-12) (UniProt P14900); assay: Inhibition of Escherichia coli MurD assessed as residual enzyme activity at 250 uM after 15 mins in presence of 0.005% Triton X-114 by Malachite green assay
# T5 sequence (whole entry): T2 sequence (P14900 whole entry)
# Enterococcus faecalis = assay: Antimicrobial activity against Enterococcus faecalis ATCC 29212 after 16 to 20 hrs; type: functional
# [8] = target: T6, UDP-N-acetylmuramoyl-L-alanyl-D-glutamate--2,6-diaminopimelate ligase (Escherichia coli (strain K12)) (UniProt P22188); assay: Inhibition of Escherichia coli MurE assessed as residual enzyme activity at 250 uM after 15 mins in presence of 0.005% Triton X-114 by Malachite green assay
# T6 sequence (whole entry): T3 sequence (P22188 whole entry)
# Haemophilus influenzae = assay: Antimicrobial activity against Haemophilus influenzae ATCC 49766 after 20 to 24 hrs; type: functional
# Staphylococcus aureus = assay: microbe, parasite or virus in culture; settings: ATCC 29213
# Description: Antimicrobial activity against Staphylococcus aureus ATCC 29213 after 16 to 20 hrs
# [9] = target: T2, UDP-N-acetylmuramoylalanine--D-glutamate ligase; assay: Partial un-competitive inhibition of Escherichia coli MurD using ATP substrate by steady-state enzyme kinetics assay
# [10] = target: T2, UDP-N-acetylmuramoylalanine--D-glutamate ligase; assay: Partial non-competitive inhibition of Escherichia coli MurD using UMA substrate by steady-state enzyme kinetics assay
# [11] = target: T2, UDP-N-acetylmuramoylalanine--D-glutamate ligase; assay: Competitive inhibition of Escherichia coli MurD using D-Glu substrate by steady-state enzyme kinetics assay
# UDP-N-acetylmuramate--L-alanine ligase, sequence (P17952 whole entry): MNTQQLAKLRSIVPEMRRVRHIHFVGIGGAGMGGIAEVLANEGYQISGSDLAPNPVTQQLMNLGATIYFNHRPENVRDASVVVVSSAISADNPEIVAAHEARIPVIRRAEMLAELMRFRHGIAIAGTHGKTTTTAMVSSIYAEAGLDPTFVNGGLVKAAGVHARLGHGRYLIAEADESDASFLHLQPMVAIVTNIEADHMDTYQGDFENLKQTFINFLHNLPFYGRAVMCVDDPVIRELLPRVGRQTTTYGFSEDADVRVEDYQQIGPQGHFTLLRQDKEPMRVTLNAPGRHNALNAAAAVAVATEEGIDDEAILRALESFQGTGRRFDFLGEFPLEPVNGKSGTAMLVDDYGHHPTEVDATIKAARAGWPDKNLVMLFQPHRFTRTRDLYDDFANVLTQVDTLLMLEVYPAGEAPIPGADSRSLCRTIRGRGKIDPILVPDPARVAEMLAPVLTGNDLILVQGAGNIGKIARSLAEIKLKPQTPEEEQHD
# UDP-N-acetylmuramate--L-alanine ligase (Escherichia coli K-12), sequence (P17952 whole entry, looked up): as the sequence (P17952 whole entry) above
Compound,Activity [1] [%],Activity [2] [%],IC50 [5] [µM],Activity [7] [%],Activity [8] [%],other results
CCc1ccccc1N1C(=O)/C(=C\c2cc(C)n(-c3cc(C(=O)O)cc(C(=O)O)c3)c2C)C(=O)NC1=S,68,85,,,,
Cc1ccc(/N=C2\NC(=O)/C(=C\c3cc(C)n(-c4cc(C(=O)O)cc(C(=O)O)c4)c3C)S2)cc1,,,245,,,IC50 [3]: 170 µM; IC50 [4]: 107 µM; IC50 [6]: 201 µM
Cc1cc(/C=C2/C(=O)NC(=O)N(c3ccc(Br)cc3)C2=O)c(C)n1-c1cc(C(=O)O)cc(C(=O)O)c1,60,62,211,71,,
GENTAMICIN,,,,,,MIC (Enterococcus faecalis): 8 µg/mL
O=C1N/C(=N\c2ccc(Br)cc2)S/C1=C/c1c[nH]c2ccccc12,75,87,,102,90,
CCc1ccc(N2C(=O)/C(=C\c3cc(C)n(C4CCCCC4)c3C)C(=O)NC2=S)cc1,75,92,,100,97,
Cc1cc(/C=C2/S/C(=N/c3ccc(F)cc3)NC2=O)c(C)n1C,67,82,,78,76,
O=C1NC(=S)N(c2ccc(Br)cc2)C(=O)/C1=C\c1ccc2c(c1)OCO2,95,120,,91,81,
Cc1cc(/C=C2/S/C(=N/c3ccc(Br)cc3)NC2=O)c(C)n1-c1cc(C(=O)O)cc(C(=O)O)c1,,,89,,,IC50 [3]: 66 µM; IC50 [4]: 44 µM; IC50 [6]: 102 µM
O=C1NC(=S)N(c2ccc(Cl)cc2)C(=O)/C1=C\c1cc2ccccc2[nH]1,20,77,44,71,,
Cc1cc(/C=C2/SC(=S)NC2=O)c(C)n1-c1cc(C(=O)O)cc(C(=O)O)c1,89,,,,,MIC (Haemophilus influenzae): 256 µg/mL; IC50 [3]: 95 µM; MIC (Staphylococcus aureus): > 256 µg/mL; IC50 [4]: 133 µM; MIC (Enterococcus faecalis): 128 µg/mL
Cc1cc(/C=C2/S/C(=N/c3ccc(Cl)cc3)NC2=O)c(C)n1-c1cc(C(=O)O)cc(C(=O)O)c1,,,93,,,Ki [9]: 39 µM; Ki [10]: 29 µM; IC50 [3]: 60 µM; IC50 [4]: 41 µM; Ki [11]: 21 µM; IC50 [6]: 89 µM
Cc1cc(/C=C2/S/C(=N/c3cccc(Br)c3)NC2=O)c(C)n1C1CCCCC1,93,89,,79,91,
Cc1cc(/C=C2/C(=O)NC(=S)N(c3cccc(Cl)c3Cl)C2=O)c(C)n1-c1cc(C(=O)O)cc(C(=O)O)c1,86,96,,,,
Cc1cc(/C=C2/S/C(=N/c3ccccc3)NC2=O)c(C)n1-c1cc(C(=O)O)cc(C(=O)O)c1,,,494,,,MIC (Haemophilus influenzae): 256 µg/mL; IC50 [3]: 206 µM; MIC (Staphylococcus aureus): > 256 µg/mL; IC50 [4]: 205 µM; MIC (Enterococcus faecalis): > 256 µg/mL; IC50 [6]: 298 µM
O=C1NC(=S)N(c2ccc(F)cc2)C(=O)/C1=C\c1ccc2c(c1)OCO2,81,108,,102,97,
CO/N=C(\C(=O)N[C@@H]1C(=O)N2C(C(=O)O)=C(COC(N)=O)CS[C@H]12)c1ccco1 [CEFUROXIME],,,,,,MIC (Haemophilus influenzae): 0.5 µg/mL
Cc1cc(/C=C2/C(=O)NC(=S)N(c3ccccc3)C2=O)c(C)n1-c1cc(C(=O)O)cc(C(=O)O)c1,84,75,,,,MIC (Haemophilus influenzae): > 256 µg/mL; MIC (Staphylococcus aureus): > 256 µg/mL; MIC (Enterococcus faecalis): > 256 µg/mL
COc1ccc(/N=C2\NC(=O)/C(=C\c3cc(C)n(-c4cc(C(=O)O)cc(C(=O)O)c4)c3C)S2)cc1,,,303,,,IC50 [3]: 168 µM; IC50 [4]: 172 µM; IC50 [6]: 281 µM
CCc1ccc(N2C(=O)NC(=O)/C(=C/c3cc(C)n(-c4cc(C(=O)O)cc(C(=O)O)c4)c3C)C2=O)cc1,75,74,330,81,,
Cc1cc(/C=C2/C(=O)NC(=S)N(c3ccccc3F)C2=O)c(C)n1-c1cc(C(=O)O)cc(C(=O)O)c1,,60,311,71,,IC50 [6]: 344 µM
Cc1cc(/C=C2/C(=O)NC(=S)N(c3cccc(Cl)c3)C2=O)c(C)n1-c1cc(C(=O)O)cc(C(=O)O)c1,78,80,,,,
C/N=C1/S/C(=C/c2cc(C)n(-c3cc(C(=O)O)cc(C(=O)O)c3)c2C)C(=O)N1C,95,106,,89,97,
